According to ChEMBL document CHEMBL2390887, “Pyrazole derivatives as inhibitors of arachidonic acid-induced platelet aggregation” (Eur J Med Chem, 2013):
Activity calls are given as the source filed them. The calls are words filed in the database; no cut-off is given here.

Assays:
Format in all cases: functional
[1] = Antiplatelet activity in human platelet rich plasma assessed as inhibition of arachidonic acid-induced platelet aggregation preincubated for 3 mins before arachidonic acid challenge by turbidimetric method
[2] = Antiplatelet activity in human platelet rich plasma assessed as inhibition of arachidonic acid-induced platelet aggregation at 100 uM preincubated for 3 mins before arachidonic acid challenge by turbidimetric method
[3] = (§1) Antiplatelet activity in human platelet rich plasma assessed as inhibition of arachidonic acid-induced platelet aggregation at 10 uM preincubated for 3 mins before arachidonic acid challenge by turbidimetric method
[4] = (§2) Antiplatelet activity in human platelet rich plasma assessed as inhibition of arachidonic acid-induced platelet aggregation at 1 uM preincubated for 3 mins before arachidonic acid challenge by turbidimetric method
[5] = (§3) Antiplatelet activity in human platelet rich plasma assessed as inhibition of ADP-induced platelet aggregation at 10 uM preincubated for 3 mins before ADP challenge by turbidimetric method
[6] = Antiplatelet activity in human platelet rich plasma assessed as inhibition of collagen-induced platelet aggregation at 10 uM preincubated for 3 mins before collagen challenge by turbidimetric method
Platelet [7] = assay: as §3
[8] = Antiplatelet activity in human platelet rich plasma assessed as inhibition of collagen-induced platelet aggregation at 1 uM preincubated for 3 mins before collagen challenge by turbidimetric method
Platelet [9] = assay: as §1
Platelet [10] = assay: as §2

Which IC50 [1] does the source give for `COc1ccc2c(c1)c(CC(=O)O)c(C)n2C(=O)c1ccc(Cl)cc1` [INDOMETHACIN] here?
The IC50 was 1620 nM.

Which inhibition at 100 µM [2] does the source give for `CCOC(=O)c1cc(-c2ccc(Cl)cc2)n(-c2ccc(Cl)nn2)n1` here?
The inhibition at 100 µM was 67%.

What does the source list for `COc1ccc(-n2nc(C(=O)N3CCN(c4ccc(C(F)(F)F)cn4)CC3)cc2-c2ccc(Cl)cc2)nn1`?
inhibition at 10 µM [3]: 65.5%; inhibition at 1 µM [4]: 10.9%; IC50 [1]: 5490 nM; inhibition at 10 µM [5]: 6.8%; inhibition at 10 µM [6]: 16%

With `O=C(c1cc(-c2ccc(Cl)cc2)n(-c2ccc(=O)[nH]n2)n1)N1CCOCC1` as the compound, how does the IC50 [1] read?
Its IC50 is 12600 nM.

Which inhibition at 10 µM [3] does the source give for `COc1ccc(-n2nc(C(=O)Oc3ccc(C)cc3)cc2-c2ccc(Cl)cc2)nn1` here?
The inhibition at 10 µM was 95%.

What about the inhibition at 1 µM [4] of the same compound?
Its inhibition at 1 µM is 23.6%.

What about the inhibition (Platelet [7]) of the same compound?
Its inhibition is “inactive”.

And the inhibition at 10 µM [6]?
Its inhibition at 10 µM is 48.5%.

Which inhibition at 10 µM [3] does the source give for `COc1ccc(NC(=O)c2cc(-c3ccc(Cl)cc3)n(-c3ccc(OC)nn3)n2)cc1` here?
Its inhibition at 10 µM is 79.9%.

What about the inhibition at 1 µM [8] of the same compound?
The inhibition at 1 µM was 43.6%.

And the inhibition at 1 µM [4]?
Its inhibition at 1 µM is 94.2%.

What about the IC50 [1] of the same compound?
The IC50 was 400 nM.

What about the inhibition at 10 µM [5] of the same compound?
The inhibition at 10 µM was 3.92%.

What about the inhibition at 10 µM [6] of the same compound?
The inhibition at 10 µM was 72.1%.

Which inhibition at 10 µM [3] does the source give for `COc1ccc(-n2nc(C(=O)Nc3ccncc3)cc2-c2ccc(Cl)cc2)nn1` here?
Its inhibition at 10 µM is 80.5%.

And the inhibition at 1 µM [8]?
The inhibition at 1 µM was 77.6%.

What about the inhibition at 1 µM [4] of the same compound?
The inhibition at 1 µM was 84.9%.

What about the IC50 [1] of the same compound?
The IC50 was 110 nM.

And the inhibition at 10 µM [5]?
The inhibition at 10 µM was 8.14%.

And the inhibition at 10 µM [6]?
The inhibition at 10 µM was 73.6%.

For `Cn1nc(-c2ccc(Cl)cc2)cc1C(=O)N1CCCCC1`, which IC50 [1] is on record?
Its IC50 is > 10000 nM.

With `COc1ccc(OC(=O)c2cc(-c3ccc(Cl)cc3)n(-c3ccc(OC)nn3)n2)cc1` as the compound, how does the inhibition at 10 µM [3] read?
The inhibition at 10 µM was 84.2%.

And the inhibition at 1 µM [4]?
The inhibition at 1 µM was 6.05%.

What about the inhibition (Platelet [7]) of the same compound?
The inhibition was “inactive”.

What about the inhibition at 10 µM [6] of the same compound?
Its inhibition at 10 µM is 24.2%.

Which IC50 [1] does the source give for `CS(=O)(=O)c1ccc(-n2nc(C(=O)N3CCCCC3)cc2-c2ccc(Cl)cc2)nn1` here?
The IC50 was 19600 nM.

Which IC50 [1] does the source give for `COc1ccc(-n2nc(C(=O)N3CCCC3)cc2-c2ccc(Cl)cc2)cc1` here?
The IC50 was 5.7 nM.

With `COc1ccc(-n2nc(C(=O)N3CCN(c4ncccn4)CC3)cc2-c2ccc(Cl)cc2)nn1` as the compound, how does the inhibition (Platelet [9]) read?
Its inhibition is “inactive”.

And the inhibition (Platelet [10])?
Its inhibition is “inactive”.

And the inhibition at 10 µM [5]?
The inhibition at 10 µM was 2.7%.

What about the inhibition at 10 µM [6] of the same compound?
The inhibition at 10 µM was 22.9%.

What does the source list for `COc1ccc(-n2nc(C(=O)Oc3cccc(C(C)C)c3)cc2-c2ccc(Cl)cc2)nn1`?
inhibition at 10 µM [3]: 84%; inhibition at 1 µM [4]: 8.97%; inhibition (Platelet [7]): inactive; inhibition at 10 µM [6]: 42.3%

With `COc1ccc(-n2nc(C(=O)N3CCCC3)cc2-c2ccc(Cl)cc2)nn1` as the compound, how does the IC50 [1] read?
Its IC50 is 15 nM.

Which IC50 [1] does the source give for `COc1ccc(-n2nc(CCC(=O)N3CCCCC3)cc2-c2ccc(Cl)cc2)nn1` here?
Its IC50 is 920 nM.

For `COc1ccc(-n2nc(C(=O)Oc3cccnc3Cl)cc2-c2ccc(Cl)cc2)nn1`, which inhibition at 10 µM [3] is on record?
Its inhibition at 10 µM is 86.5%.

And the inhibition (Platelet [10])?
Its inhibition is “inactive”.

And the inhibition (Platelet [7])?
The inhibition was “inactive”.

What about the inhibition at 10 µM [6] of the same compound?
Its inhibition at 10 µM is 8.49%.

Which inhibition at 10 µM [3] does the source give for `COc1ccc(-n2nc(C(=O)OCCC(C)C)cc2-c2ccc(Cl)cc2)nn1` here?
Its inhibition at 10 µM is 91.2%.

And the inhibition at 1 µM [8]?
Its inhibition at 1 µM is 34.2%.

And the inhibition at 1 µM [4]?
The inhibition at 1 µM was 19%.

And the IC50 [1]?
Its IC50 is 1330 nM.

What about the inhibition at 10 µM [5] of the same compound?
Its inhibition at 10 µM is 6.77%.

And the inhibition at 10 µM [6]?
The inhibition at 10 µM was 66.7%.

What does the source list for `CCCOc1ccc(OC(=O)c2cc(-c3ccc(Cl)cc3)n(-c3ccc(OC)nn3)n2)cc1`?
inhibition at 10 µM [3]: 93%; inhibition at 1 µM [8]: 32.2%; inhibition at 1 µM [4]: 3.87%; inhibition (Platelet [7]): inactive; inhibition at 10 µM [6]: 61.9%

With `COc1ccc(-n2nc(C(=O)N3CCCCC3)cc2-c2ccc(Cl)cc2)nn1` as the compound, how does the inhibition at 10 µM [3] read?
Its inhibition at 10 µM is 94.8%.

And the inhibition at 1 µM [8]?
The inhibition at 1 µM was 76.8%.

And the inhibition at 1 µM [4]?
Its inhibition at 1 µM is 92.9%.

What about the IC50 [1] of the same compound?
Its IC50 is 41 nM.

And the inhibition (Platelet [7])?
Its inhibition is “inactive”.

What about the inhibition at 10 µM [6] of the same compound?
The inhibition at 10 µM was 71.1%.

Which IC50 [1] does the source give for `Cn1nc(-c2ccc(Cl)cc2)cc1C(=O)N1CCOCC1` here?
The IC50 was > 10000 nM.

Which results are given for `COc1ccc(-n2nc(C(=O)Oc3ccc4ccccc4c3)cc2-c2ccc(Cl)cc2)nn1`?
inhibition at 10 µM [3]: 86.3%; inhibition at 1 µM [4]: 2.36%; inhibition at 10 µM [5]: 3.34%; inhibition at 10 µM [6]: 22.4%

Which inhibition at 10 µM [3] does the source give for `COc1ccc(-n2nc(C(=O)Nc3ccc(Cl)cc3)cc2-c2ccc(Cl)cc2)nn1` here?
Its inhibition at 10 µM is 74.3%.

And the inhibition at 1 µM [8]?
The inhibition at 1 µM was 25.7%.

And the inhibition at 1 µM [4]?
Its inhibition at 1 µM is 80.9%.

What about the IC50 [1] of the same compound?
The IC50 was 610 nM.

What about the inhibition at 10 µM [5] of the same compound?
The inhibition at 10 µM was 7.93%.

What about the inhibition at 10 µM [6] of the same compound?
The inhibition at 10 µM was 70.5%.

Which IC50 [1] does the source give for `O=C(c1cc(-c2ccc(Cl)cc2)n[nH]1)N1CCOCC1` here?
The IC50 was > 10000 nM.

With `COc1ccc(-n2nc(C(=O)Oc3ccc(-n4ccnc4)cc3)cc2-c2ccc(Cl)cc2)nn1` as the compound, how does the inhibition at 10 µM [3] read?
The inhibition at 10 µM was 90%.

What about the inhibition at 1 µM [4] of the same compound?
The inhibition at 1 µM was 5.25%.

And the inhibition (Platelet [7])?
Its inhibition is “inactive”.

What about the inhibition at 10 µM [6] of the same compound?
The inhibition at 10 µM was 2.11%.

Which results are given for `COc1ccc(-n2nc(C(=O)N3CCN(c4ccc(F)cc4)CC3)cc2-c2ccc(Cl)cc2)nn1`?
inhibition at 10 µM [3]: 79.7%; inhibition (Platelet [10]): inactive; inhibition (Platelet [7]): inactive; inhibition at 10 µM [6]: 32.2%

Which IC50 [1] does the source give for `COc1ccc(-n2nc(C(=O)N3CCCCC3)cc2-c2ccc(Cl)cc2)cc1` here?
The IC50 was 7.9 nM.

With `CC(=O)Oc1ccccc1C(=O)O` [ASPIRIN] as the compound, how does the IC50 [1] read?
Its IC50 is 7760 nM.

For `COc1ccc(-n2nc(C(=O)N3CCCCC3)cc2C)nn1`, which IC50 [1] is on record?
Its IC50 is > 10000 nM.

Which IC50 [1] does the source give for `COc1ccc(-n2nc(C(=O)N3CCOCC3)cc2C)nn1` here?
The IC50 was > 10000 nM.

What does the source list for `COc1ccc(-n2nc(C(=O)N3CCN(c4ccc(C)cc4)CC3)cc2-c2ccc(Cl)cc2)nn1`?
inhibition at 10 µM [3]: 97.6%; inhibition at 1 µM [4]: 3.96%; IC50 [1]: 4670 nM; inhibition (Platelet [7]): inactive; inhibition at 10 µM [6]: 20.1%

Which inhibition at 10 µM [3] does the source give for `COc1ccc(-n2nc(C(=O)N3CCOCC3)cc2-c2ccc(Cl)cc2)nn1` here?
Its inhibition at 10 µM is 94.8%.

And the inhibition at 1 µM [8]?
The inhibition at 1 µM was 74.2%.

And the inhibition at 1 µM [4]?
The inhibition at 1 µM was 92.7%.

What about the IC50 [1] of the same compound?
Its IC50 is 83 nM.

What about the inhibition at 10 µM [5] of the same compound?
Its inhibition at 10 µM is 11.3%.

And the inhibition at 10 µM [6]?
Its inhibition at 10 µM is 70.9%.

For `COc1ccc(-n2nc(C(=O)Oc3ccc(C4CCCC4)cc3)cc2-c2ccc(Cl)cc2)nn1`, which inhibition at 10 µM [3] is on record?
Its inhibition at 10 µM is 86.7%.

And the inhibition (Platelet [10])?
Its inhibition is “inactive”.

And the inhibition (Platelet [7])?
Its inhibition is “inactive”.

And the inhibition at 10 µM [6]?
The inhibition at 10 µM was 19.9%.

Which IC50 [1] does the source give for `CS(=O)(=O)c1ccc(-n2nc(C(=O)N3CCOCC3)cc2-c2ccc(Cl)cc2)nn1` here?
The IC50 was > 20000 nM.

With `O=C(c1cc(-c2ccc(Cl)cc2)n[nH]1)N1CCCCC1` as the compound, how does the IC50 [1] read?
Its IC50 is > 10000 nM.

With `O=C(c1cc(-c2ccc(Cl)cc2)n(-c2ccc(=O)[nH]n2)n1)N1CCCCC1` as the compound, how does the IC50 [1] read?
The IC50 was 2090 nM.

For `COc1ccc(-c2onc(C(=O)N3CCCCC3)c2-c2ccc(Cl)cc2)cc1`, which IC50 [1] is on record?
The IC50 was 5030 nM.

Which IC50 [1] does the source give for `COc1ccc(-c2onc(C(=O)N3CCOCC3)c2-c2ccc(Cl)cc2)cc1` here?
The IC50 was 18400 nM.

Which IC50 [1] does the source give for `COc1ccc(-n2nc(C(=O)N3CCOCC3)cc2-c2ccc(Cl)cc2)cc1` here?
Its IC50 is 7.3 nM.

For `COc1ccc(-n2nc(CCC(=O)N3CCOCC3)cc2-c2ccc(Cl)cc2)nn1`, which IC50 [1] is on record?
Its IC50 is 1080 nM.
